# Test results taken from US9995731B2, “Construction of mitochondrial UQCRB mutant expressing cells and utilization of the cells for UQCRB assay system thereof” (INDUSTRY-ACADEMIC COOPERATION FOUNDATION, YONSEI UNIVERSITY, priority 2014, dated 2018).
# What was measured:
# Type in all cases: cell-based, human
# [1] = system: UQCRB mutant stable cell line MT1; assay: Cell proliferation assay (MTT colorimetric), UQCRB mutant stable cell line MT1; settings: MT1 cells, terpestacin 50 μM, with or without terpestacin for 3 days
# Excerpt: (§1) FIG. 4A-4F Pro-angiogenic activity of UQCRB mutant stable cell lines and its regulation by UQCRB inhibitors. (4A) Pro-angiogenic activity of a UQCRB mutant through conditioned media (CM)-induced invasion of HUVECs. (4B) Effect of a UQCRB mutation on cell migration; black lines indicate the edge of the gap. (4C) Optical density levels of the colony formation assay by using UQCRB mutant stable cell lines or controls. (4D, 4E) Growth of the UQCRB mutant stable cell lines regulated by the UQCRB inhibitors terpestacin (T) and A1938 (A). Cells were treated with terpestacin (50 μM) or A1938 (10 μM) in a time-dependent manner. Cell growth was measured by the MTT colorimetric assay. (4F) Suppression of elevated mROS by terpestacin in UQCRB MT1 cells. mROS were measured using MitoSOX™. Terpestacin (20 μM) was applied to UQCRB MT1 cells for 1 h; scale bars indicate 20 μm. […]
# (§2) Control and mutant stable cell lines were seeded onto 96-well plates and incubated for 24-72 h. Proliferation of the cells was measured using a 3-(4,5-dimethylthiazol-2-yl)-2,5-diphenyltetrazolium bromide (MTT; Sigma-Aldrich, Saint Louis, Mo.) colorimetric assay.
# (§3) Since UQCRB is a molecular target of the natural compound terpestacin [6], we examined the effect of terpestacin on UQCRB mutant stable cell lines. To test whether terpestacin affects MT1 and MT2, cell growth was measured with or without terpestacin for 3 days. […]
# [2] = system: UQCRB mutant stable cell line MT2; assay: Cell proliferation assay (MTT colorimetric), UQCRB mutant stable cell line MT2; settings: MT2 cells, terpestacin 50 μM, with or without terpestacin for 3 days
# Excerpt: as §1, §2, §3
# Control (HEK293) cells = assay: Cell proliferation assay (MTT colorimetric), control cells; settings: terpestacin 50 μM, 3 days
# Excerpt: as §1, §2, §3
# UQCRB MT1 cells = assay: Measurement of mROS levels with MitoSOX in UQCRB MT1 cells; settings: terpestacin 20 μM for 1 h
# Excerpt: as §1, with “MitoSOX™.” for “MitoSOX™. Terpestacin (20 μM) was applied to UQCRB MT1 cells for 1 h; scale bars indicate 20 μm.”
# mROS levels were assessed by the red fluorescence mitochondrial superoxide indicator MitoSOX™ (Invitrogen, Grand Island, N.Y.). […] Results of MitoSOX™ and Hoechst staining were analyzed under a confocal microscope (Zeiss LSM 710; Carl Zeiss Microlmaging, Thornwood, N.Y.), and the fluorescence intensity of MitoSOX™ was measured by ImageJ.
# as §3
structure (smiles),measurement,setting,value
C/C1=C\C[C@]2(C)C(=O)C(O)=C([C@H](C)CO)[C@H]2C/C=C(\C)[C@@H](O)CC/C(C)=C/CC1 [terpestacin],"effect on proliferation (cell growth, MTT)",[1],remarkably inhibited proliferation
same,"effect on proliferation (cell growth, MTT)",[2],remarkably inhibited proliferation
same,"effect on proliferation (cell growth, MTT)",Control (HEK293) cells,did not affect the proliferation
same,effect on elevated mROS (MitoSOX fluorescence),UQCRB MT1 cells,attenuated mROS induction in MT1 to a basal level
